Data taken from patent publication US7560468B2, “Substituted 1,4,8-triazaspiro[4,5]decan-2-one compounds” (Gruenenthal GmbH, priority 2004, dated 2009).

Legend:
[1] = system: batrachotoxin (BTX) binding site of the sodium channel; assay: Affinity to the batrachotoxin (BTX) binding site of the sodium channel; details: rat cerebrocortex synaptosomes, [3H]-batrachotoxinin A20 α-benzoate 10 nM; test concentration not given
5-HT transporter = molecular target: T1, 5-HT transporter (Rattus norvegicus, UniProt P31652); assay: Inhibition of 5-HT uptake in synaptosomes; type: biochemical; details: rat, 1 μM
T1 construct: from tissue; host or cells: rat brain synaptosomes (marrow/medulla and pons), P2 fraction
T1 sequence (P31652 whole entry): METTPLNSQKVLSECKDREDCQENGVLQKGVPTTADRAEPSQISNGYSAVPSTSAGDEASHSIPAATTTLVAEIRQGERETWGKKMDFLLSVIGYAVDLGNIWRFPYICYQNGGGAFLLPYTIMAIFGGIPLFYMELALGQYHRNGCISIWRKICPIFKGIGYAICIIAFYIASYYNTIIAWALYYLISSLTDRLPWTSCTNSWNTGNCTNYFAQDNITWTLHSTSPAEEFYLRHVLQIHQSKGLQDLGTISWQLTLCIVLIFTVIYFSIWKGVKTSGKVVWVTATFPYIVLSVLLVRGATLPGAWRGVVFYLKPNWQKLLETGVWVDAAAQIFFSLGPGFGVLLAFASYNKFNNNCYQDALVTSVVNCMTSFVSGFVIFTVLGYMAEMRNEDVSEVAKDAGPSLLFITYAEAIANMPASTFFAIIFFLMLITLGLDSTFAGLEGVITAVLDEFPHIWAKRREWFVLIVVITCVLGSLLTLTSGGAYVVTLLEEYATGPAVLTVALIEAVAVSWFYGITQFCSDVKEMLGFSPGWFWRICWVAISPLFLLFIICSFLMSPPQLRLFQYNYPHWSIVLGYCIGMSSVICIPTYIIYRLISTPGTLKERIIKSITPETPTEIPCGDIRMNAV

Row | Compound | BTX Inhibition [1] | Uptake_5-HT, rat, 1 μM, % inhibition (5-HT transporter)
1 | CSCCC1NC2(CCN(S(=O)(=O)c3cc(C)c(Cl)cc3C)CC2)N(Cc2ccc(F)cc2)C1=O (stereo not drawn) [Example 26, 8-(4-Chloro-2,5-dimethylbenzolsulfonyl)-1-(4-fluorobenzyl)-3-(2-methylsulfanylethyl)-1,4,8-triazaspiro[4,5]decan-2-one] | 38 | 68%
2 | CCOC(=O)CN1C(=O)C(Cc2ccccc2)NC12CCN(S(=O)(=O)c1cccc(C)c1)CC2 (stereo not drawn) [Example 63, Ethyl[3-benzyl-2-oxo-8-(toluol-3-sulfonyl)-1,4,8-triazaspiro[4,5]dec-1-yl]-acetate] | 36 | 59%
3 | CSCCC1NC2(CCN(S(=O)(=O)c3ccc(C)cc3)CC2)N(Cc2ccc(F)cc2)C1=O (stereo not drawn) [Example 44, 1-(4-Fluorobenzyl)-3-(2-methylsulfanylethyl)-8-(toluol-4-sulfonyl)-1,4,8-triazaspiro[4,5]decan-2-one] | 42 | 42%
4 | CCCCN1C(=O)C(Cc2ccccc2)NC12CCN(S(=O)(=O)c1ccccc1C(F)(F)F)CC2 (stereo not drawn) [Example 22, 3-Benzyl-1-butyl-8-(2-trifluoromethylbenzolsulfonyl)-1,4,8-triazaspiro[4,5]decan-2-one] | 38 | 66%
5 | CCCCN1C(=O)C(CCSC)NC12CCN(S(=O)(=O)c1cccc(C)c1)CC2 (stereo not drawn) [Example 18, 1-Butyl-3-(2-methylsulfanylethyl)-8-(toluol-3-sulfonyl)-1,4,8-triazaspiro[4,5]decan-2-one] | 32 | 68%
6 | CCOc1ccc(NC(=S)N2CCC3(CC2)NC(CCSC)C(=O)N3Cc2ccc(F)cc2)cc1 (stereo not drawn) [Example 200, 1-(4-Fluorobenzyl)-3-(2-methylsulfanylethyl)-2-oxo-1,4,8-triazaspiro[4,5]decan-8-thiocarboxylic acid (4-ethoxy-benzol)amide] | 30 | 30%
7 | Cc1ccc(S(=O)(=O)N2CCC3(CC2)NC(Cc2ccccc2)C(=O)N3Cc2ccccc2)cc1 (stereo not drawn) [Example 45, 1,3-Dibenzyl-8-(toluol-4-sulfonyl)-1,4,8-triazaspiro[4,5]decan-2-one] | 37 | 74%
8 | CCOC(=O)CN1C(=O)C(CCSC)NC12CCN(S(=O)(=O)Cc1ccccc1)CC2 (stereo not drawn) [Example 57, Ethyl[3-(2-methylsulfanylethyl)-2-oxo-8-benzolmethansulfonyl-1,4,8-triazaspiro[4,5]dec-1-yl]-acetate] | 34 | 32%
9 | CCCCN1C(=O)C(CCSC)NC12CCN(C(=O)Nc1ccc(Cl)c(C(F)(F)F)c1)CC2 (stereo not drawn) [Example 227, 1-Butyl-3-(2-methylsulfanylethyl)-2-oxo-1,4,8-triazaspiro[4,5]decan-8-carboxylic acid (4-chloro-3-trifluoromethylbenzol)amide] | 85 | 58%
10 | CSCCC1NC2(CCN(C(=S)Nc3cc(F)ccc3F)CC2)N(Cc2ccccc2)C1=O (stereo not drawn) [Example 140, 1-Benzyl-3-(2-methylsulfanylethyl)-2-oxo-1,4,8-triazaspiro[4,5]decan-8-thiocarboxylic acid (2,5-difluorobenzol)amide] | 53 | 59%
11 | CCCCN1C(=O)C(C(C)C)NC12CCN(C(=S)Nc1cc(Cl)ccc1Cl)CC2 (stereo not drawn) [Example 117, 1-Butyl-3-isopropyl-2-oxo-1,4,8-triazaspiro[4,5]decan-8-thiocarboxylic acid (2,5-dichlorobenzol)amide] | 44 | 33%
12 | O=C(Nc1cc(F)ccc1F)N1CCC2(CC1)NC(Cc1ccccc1)C(=O)N2Cc1ccccc1F (stereo not drawn) [Example 230, 3-Benzyl-1-(2-fluorobenzyl)-2-oxo-1,4,8-triazaspiro[4,5]decan-8-carboxylic acid (2,5-difluorobenzol)amide] | 78 | 63%
